Bounds are passed on as bounds.

Sequence of EZH2 (Q15910 other isoform, or with tags, fused parts or gaps): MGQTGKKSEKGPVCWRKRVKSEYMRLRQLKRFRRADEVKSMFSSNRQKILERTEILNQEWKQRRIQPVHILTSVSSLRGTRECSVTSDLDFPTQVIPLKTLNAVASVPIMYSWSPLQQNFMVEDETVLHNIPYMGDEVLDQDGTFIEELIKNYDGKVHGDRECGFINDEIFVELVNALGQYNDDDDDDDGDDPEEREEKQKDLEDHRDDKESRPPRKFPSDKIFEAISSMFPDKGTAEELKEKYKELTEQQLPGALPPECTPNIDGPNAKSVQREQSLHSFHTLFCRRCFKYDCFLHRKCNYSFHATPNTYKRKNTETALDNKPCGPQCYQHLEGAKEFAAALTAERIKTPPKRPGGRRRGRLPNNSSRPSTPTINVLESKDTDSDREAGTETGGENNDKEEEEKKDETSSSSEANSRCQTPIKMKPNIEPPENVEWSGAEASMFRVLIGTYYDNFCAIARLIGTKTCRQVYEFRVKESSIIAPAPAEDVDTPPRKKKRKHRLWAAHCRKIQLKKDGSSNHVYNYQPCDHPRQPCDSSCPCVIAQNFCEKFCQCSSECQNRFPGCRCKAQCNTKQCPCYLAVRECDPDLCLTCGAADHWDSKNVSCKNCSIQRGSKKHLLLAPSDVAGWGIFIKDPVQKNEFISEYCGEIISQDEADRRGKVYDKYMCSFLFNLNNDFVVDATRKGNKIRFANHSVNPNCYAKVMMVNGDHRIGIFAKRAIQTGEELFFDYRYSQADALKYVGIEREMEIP
Sequence of EZH2 (O75530 whole entry partner): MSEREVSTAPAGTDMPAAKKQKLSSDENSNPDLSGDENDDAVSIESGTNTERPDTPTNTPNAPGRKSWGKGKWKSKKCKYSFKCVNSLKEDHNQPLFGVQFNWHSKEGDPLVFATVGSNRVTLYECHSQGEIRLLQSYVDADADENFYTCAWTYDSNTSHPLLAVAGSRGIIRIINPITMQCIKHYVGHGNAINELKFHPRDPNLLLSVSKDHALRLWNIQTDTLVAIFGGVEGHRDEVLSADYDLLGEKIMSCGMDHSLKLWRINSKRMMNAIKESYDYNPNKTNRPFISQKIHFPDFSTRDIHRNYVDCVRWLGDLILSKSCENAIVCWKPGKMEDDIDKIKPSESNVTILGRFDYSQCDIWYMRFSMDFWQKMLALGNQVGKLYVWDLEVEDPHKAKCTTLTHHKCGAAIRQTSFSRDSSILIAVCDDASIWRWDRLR
Sequence of EZH2 (Q15022 whole entry partner): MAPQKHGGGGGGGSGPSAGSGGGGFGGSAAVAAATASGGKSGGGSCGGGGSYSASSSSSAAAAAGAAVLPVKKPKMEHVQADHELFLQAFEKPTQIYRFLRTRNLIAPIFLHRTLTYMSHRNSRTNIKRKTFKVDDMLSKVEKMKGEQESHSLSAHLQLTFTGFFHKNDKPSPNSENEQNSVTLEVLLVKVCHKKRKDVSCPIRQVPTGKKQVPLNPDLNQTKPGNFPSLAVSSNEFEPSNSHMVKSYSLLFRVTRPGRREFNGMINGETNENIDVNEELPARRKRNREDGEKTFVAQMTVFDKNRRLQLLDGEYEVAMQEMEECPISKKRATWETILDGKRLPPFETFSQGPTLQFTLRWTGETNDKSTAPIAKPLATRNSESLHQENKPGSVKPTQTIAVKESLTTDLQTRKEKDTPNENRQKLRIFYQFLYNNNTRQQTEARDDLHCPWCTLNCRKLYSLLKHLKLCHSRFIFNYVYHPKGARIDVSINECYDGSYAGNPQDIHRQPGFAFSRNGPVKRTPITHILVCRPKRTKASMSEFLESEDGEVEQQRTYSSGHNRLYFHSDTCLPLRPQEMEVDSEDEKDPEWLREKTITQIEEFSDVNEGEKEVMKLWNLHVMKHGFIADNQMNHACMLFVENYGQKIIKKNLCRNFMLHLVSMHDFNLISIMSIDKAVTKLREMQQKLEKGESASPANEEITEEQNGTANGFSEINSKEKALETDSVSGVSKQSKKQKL
Sequence of EZH2 (Q09028 whole entry partner): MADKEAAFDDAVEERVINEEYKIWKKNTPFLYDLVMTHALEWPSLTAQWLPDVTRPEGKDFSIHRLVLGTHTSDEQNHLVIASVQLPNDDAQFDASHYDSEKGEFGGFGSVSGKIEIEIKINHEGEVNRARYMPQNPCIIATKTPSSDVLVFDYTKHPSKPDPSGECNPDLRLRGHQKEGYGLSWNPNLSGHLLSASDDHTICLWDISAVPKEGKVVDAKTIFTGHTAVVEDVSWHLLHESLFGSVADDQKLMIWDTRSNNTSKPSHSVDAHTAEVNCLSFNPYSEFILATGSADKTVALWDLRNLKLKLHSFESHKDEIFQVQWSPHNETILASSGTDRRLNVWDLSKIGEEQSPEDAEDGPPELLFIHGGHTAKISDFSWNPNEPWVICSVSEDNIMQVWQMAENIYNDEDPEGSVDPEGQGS

The assay addresses EZH2 (Homo sapiens (Human), UniProt Q15910). In words: PRC2 enzyme assay on peptide substrates. The settings on record: PRC2 enzyme assays on peptide substrates; 4 nM enzyme, 30 min preincubation at 25° C.; read-out: EZH2 IC50. The format is biochemical.
The IC50 is the point on the concentration scale where inhibition reaches its midpoint. For the molecule `Cc1cc(C)c(CNC(=O)c2cc(C3=CCN(C(=O)C4CCNCC4)CC3)cc3c2cnn3C2CCCC2)c(=O)[nH]1` [Compound D-39], the IC50 was less than 300 nM.
As to `Cc1cc(C)c(CNC(=O)c2cc(C3=CCNCC3)cc3c2cnn3C2CCCC2)c(=O)[nH]1` [Compound D-41], the IC50 was less than 300 nM.
For `Cc1cc(C)c(CNC(=O)c2cc(Br)cc3c2cnn3C2CCN(C(=O)C(C)C)CC2)c(=O)[nH]1` [Compound D-42], the IC50 is less than 300 nM.
The value for `Cc1cc(C)c(CNC(=O)c2cc(C=O)cc3c2cnn3C2CCCC2)c(=O)[nH]1` [Compound D-43] was less than 300 nM; that for `CNCC(=O)N1CC=C(c2cc(C(=O)NCc3c(C)cc(C)[nH]c3=O)c3cnn(C4CCCC4)c3c2)CC1` [Compound D-45] was less than 300 nM; that for `Cc1cc(C)c(CNC(=O)c2cc(C3CCN(CCN(C)C)CC3)cc3c2cnn3C2CCCC2)c(=O)[nH]1` [Compound D-46] was less than 300 nM.
Turning to `Cc1cc(C)c(CNC(=O)c2cc(C3=CCN(C(=O)CN)CC3)cc3c2cnn3C2CCCC2)c(=O)[nH]1` [Compound D-47], the half-maximal inhibitory concentration (IC50) was less than 300 nM.
As to `CNCCN1CC=C(c2cc(C(=O)NCc3c(C)cc(C)[nH]c3=O)c3cnn(C4CCCC4)c3c2)CC1` [Compound D-48], the concentration for half-maximal inhibition (IC50) was less than 300 nM.
On to `Cc1cc(C)c(CNC(=O)c2cc(C3=CCN(CCN)CC3)cc3c2cnn3C2CCCC2)c(=O)[nH]1` [Compound D-49], for which the IC50 is less than 300 nM.
Consider `Cc1cc(C)c(CNC(=O)c2cc(C3=CCN(C(=O)C4CN(C)C4)CC3)cc3c2cnn3C2CCCC2)c(=O)[nH]1` [Compound D-50], for which the IC50 was less than 300 nM.
`CNCCN1CCC(c2cc(C(=O)NCc3c(C)cc(C)[nH]c3=O)c3cnn(C4CCCC4)c3c2)CC1` [Compound D-51]: the IC50 is less than 300 nM.
Take `Cc1cc(C)c(CNC(=O)c2cc(Br)cc3c2cnn3C2CCN(C(=O)C3CCNCC3)CC2)c(=O)[nH]1` [Compound D-52]: the IC50 was less than 300 nM.
Take `Cc1cc(C)c(CNC(=O)c2cc(CNCCN(C)C)cc3c2cnn3C2CCCC2)c(=O)[nH]1` [Compound D-53]: the IC50 lay within 300 to 1000 nM.
For the molecule `Cc1cc(C)c(CNC(=O)c2cc(C3=CCN(C(=O)CO)CC3)cc3c2cnn3C2CCCC2)c(=O)[nH]1` [Compound D-54], the IC50 fell in the range of 300 to 1000 nM.
`CCC(=O)N1CCC(n2ncc3c(C(=O)NCc4c(C)cc(C)[nH]c4=O)cc(Br)cc32)CC1` [Compound D-55]: the IC50 was 300 to 1000 nM.
Regarding `CC(=O)N1CCC(n2ncc3c(C(=O)NCc4c(C)cc(C)[nH]c4=O)cc(Br)cc32)CC1` [Compound D-59], the IC50 was 300 to 1000 nM.
The value for `CCc1cc(C(=O)NCc2c(C)cc(C)[nH]c2=O)c2cnn(C3CCCC3)c2c1` [Compound D-60] was 300 to 1000 nM.
With `Cc1cc(CN(C)CCCN(C)C)c(CNC(=O)c2cc(Br)cc3c2cnn3C2CCCC2)c(=O)[nH]1` [Compound D-62], the IC50 is 300 to 1000 nM.
For the molecule `Cc1cc(CN2CCN(C)CC2)c(CNC(=O)c2cc(Br)cc3c2cnn3C2CCCC2)c(=O)[nH]1` [Compound D-63], the IC50 is 300 to 1000 nM.
Turning to `Cc1cc(C)c(CNC(=O)c2cc(CN3CCOCC3)cc3c2cnn3C2CCCC2)c(=O)[nH]1` [Compound D-64], the IC50 is 300 to 1000 nM.
On to `Cc1cc(C)c(CNC(=O)c2cccc3c2cnn3C2CCCC2)c(=O)[nH]1` [Compound D-66], for which the IC50 lay within 300 to 1000 nM.
Turning to `Cc1cc(C)c(CNC(=O)c2cc(CN(C)CCCN(C)C)cc3c2cnn3C2CCCC2)c(=O)[nH]1` [Compound D-67], the IC50 is 300 to 1000 nM.
On to `Cc1cc(C)c(CNC(=O)c2cc(COCCO)cc3c2cnn3C2CCCC2)c(=O)[nH]1` [Compound D-68], for which the IC50 is 300 to 1000 nM.
The value for `Cc1cc(CN2CCNC(=O)C2)c(CNC(=O)c2cc(Br)cc3c2cnn3C2CCCC2)c(=O)[nH]1` [Compound D-69] was 1000 to 3000 nM.
In the case of `Cc1cc(C)c(CNC(=O)c2cc(Br)cc3c2cnn3C2CCN(C(C)C)CC2)c(=O)[nH]1` [Compound D-70], the IC50 was in the range of 1000 to 3000 nM.
Turning to `Cc1cc(C)c(CNC(=O)c2cccc3c2cnn3C(C)C)c(=O)[nH]1` [Compound D-71], the concentration for half-maximal inhibition (IC50) was 1000 to 3000 nM.
As for `COCCOCc1cc(C(=O)NCc2c(C)cc(C)[nH]c2=O)c2cnn(C3CCCC3)c2c1` [Compound D-72], the IC50 is 1000 to 3000 nM.
The value for `COCCNCc1cc(C(=O)NCc2c(C)cc(C)[nH]c2=O)c2cnn(C3CCCC3)c2c1` [Compound D-73] was 1000 to 3000 nM; that for `Cc1cc(CN2CCN(C)CC2)c(CNC(=O)c2cccc3c2cnn3C2CCCC2)c(=O)[nH]1` [Compound D-74] was 1000 to 3000 nM.
Take `Cc1cc(CN(C)CCN(C)C)c(CNC(=O)c2cccc3c2cnn3C2CCCC2)c(=O)[nH]1` [Compound D-75]: the IC50 was in the range of 1000 to 3000 nM.
Turning to `Cc1cc(CN(C)CCN)c(CNC(=O)c2cccc3c2cnn3C2CCCC2)c(=O)[nH]1` [Compound D-76], the IC50 was in the range of 1000 to 3000 nM.
Consider `Cc1cc(C)c(CNC(=O)c2cc(CNCCO)cc3c2cnn3C2CCCC2)c(=O)[nH]1` [Compound D-77], for which the IC50 was in the range of 1000 to 3000 nM.
As for `Cc1cc(C)c(CNC(=O)c2cc(CN(C)CCN(C)C)cc3c2cnn3C2CCCC2)c(=O)[nH]1` [Compound D-78], the IC50 was in the range of 1000 to 3000 nM.
As to `Cc1cc(CN2CCC(N3CCCCC3)CC2)c(CNC(=O)c2cc(Br)cc3c2cnn3C2CCCC2)c(=O)[nH]1` [Compound D-79], the IC50 was 1000 to 3000 nM.
Turning to `Cc1cc(CN(C)CCCN(C)C)c(CNC(=O)c2cccc3c2cnn3C2CCCC2)c(=O)[nH]1` [Compound D-80], the IC50 fell in the range of 1000 to 3000 nM.
On to `Cc1cc(CN(C)C)c(CNC(=O)c2cccc3c2cnn3C2CCCC2)c(=O)[nH]1` [Compound D-81], for which the 50% inhibitory concentration (IC50) fell in the range of 3000 to 10000 nM.
Take `Cc1cc(CN2CCCC2)c(CNC(=O)c2cccc3c2cnn3C2CCCC2)c(=O)[nH]1` [Compound D-82]: the IC50 was in the range of 3000 to 10000 nM.
In the case of `CNCc1cc(C)[nH]c(=O)c1CNC(=O)c1cccc2c1cnn2C1CCCC1` [Compound D-83], the half-maximal inhibitory concentration (IC50) was in the range of 3000 to 10000 nM.
Turning to `Cc1cc(CN2CCOCC2)c(CNC(=O)c2cccc3c2cnn3C2CCCC2)c(=O)[nH]1` [Compound D-84], the IC50 is 3000 to 10000 nM.
Next, `Cc1cc(COCCN(C)C)c(CNC(=O)c2cc(Br)cc3c2cnn3C2CCCC2)c(=O)[nH]1` [Compound D-85]: 3000 to 10000 nM.
On to `Cc1cc(COCCCN(C)C)c(CNC(=O)c2cccc3c2cnn3C2CCCC2)c(=O)[nH]1` [Compound D-86], for which the IC50 lay within 3000 to 10000 nM.
Consider `Cc1cc(C)c(CNC(=O)c2cc(COCCCN(C)C)cc3c2cnn3C2CCCC2)c(=O)[nH]1` [Compound D-87], for which the IC50 was 3000 to 10000 nM.
For `Cc1cc(CO)c(CNC(=O)c2cccc3c2cnn3C2CCCC2)c(=O)[nH]1` [Compound D-88], the half-maximal inhibitory concentration (IC50) was 10000 to 50000 nM.
In the case of `Cc1cc(CNCC2CCOCC2)c(CNC(=O)c2cccc3c2cnn3C2CCCC2)c(=O)[nH]1` [Compound D-89], the IC50 was in the range of 10000 to 50000 nM.
The value for `Cc1cc(COCCCN(C)C)c(CNC(=O)c2cc(Br)cc3c2cnn3C2CCCC2)c(=O)[nH]1` [Compound D-90] was 10000 to 50000 nM; that for `Cc1cc(C)c(CNC(=O)c2cc(CN3CCC[C@@H]3C(N)=O)cc3c2cnn3C2CCCC2)c(=O)[nH]1` [Compound D-93] was 300 to 1000 nM; that for `Cc1cc(C)c(CNC(=O)c2cc(CN3CCNC(=O)C3)cc3c2cnn3C2CCCC2)c(=O)[nH]1` [Compound D-94] was 300 to 1000 nM.
Next, `Cc1cc(C)c(CNC(=O)c2cc(C3=CCN(CCO)CC3)cc3c2cnn3C2CCCC2)c(=O)[nH]1` [Compound D-95]: less than 300 nM; `Cc1cc(C)c(CNC(=O)c2cc(C3CCN(CCN)CC3)cc3c2cnn3C2CCCC2)c(=O)[nH]1` [Compound D-96]: less than 300 nM.
In the case of `Cc1cc(C)c(CNC(=O)c2cc(C3CCN(CCO)CC3)cc3c2cnn3C2CCCC2)c(=O)[nH]1` [Compound D-97], the IC50 was less than 300 nM.
As to `Cc1cc(C)c(CNC(=O)c2cc(Br)cc3c2cnn3C2CCN(C(=O)C3CCC3)CC2)c(=O)[nH]1` [Compound D-98], the IC50 fell in the range of 300 to 1000 nM.
The value for `Cc1cc(C)c(CNC(=O)c2cccc3c2ccn3C(C)C)c(=O)[nH]1` [Compound E-1] was 1000 to 3000 nM; that for `Cc1cc(C)c(CNC(=O)c2cc(-c3ccc(CN4CCOCC4)cc3)cc3c2ccn3C2CCCC2)c(=O)[nH]1` [Compound E-2] was less than 300 nM; that for `Cc1cc(C)c(CNC(=O)c2ccnc3c2ccn3C(C)C)c(=O)[nH]1` [Compound F-1] was 3000 to 10000 nM.
